# In patent US10798943B2, “Use of 6-anilino purine derivatives to improve heat stress tolerance of rice seedlings” (SYNGENTA PARTICIPATIONS AG, priority 2016, dated 2020):
# What was measured:
# Format in all cases: in vivo
# rice under heat stress = assay: Yield in 2016 trial (Trial 3)
# [1] = test system: rice seedlings (hybrid rice variety ADT45) under heat stress; assay: Transplant shock stress, visual assessment of damage severity, Ramapuram trial; conditions: for Transplanting shock stress (8th day) / Transplanting shock stress (12th day) / Transplanting shock stress (4th day): Ramapuram
# From the text: (§1) Trials were setup in two locations in India to test the effect of compounds of formula I on tolerance of rice seedlings to heat stress during transplantation.
# (§2) For each trial, hybrid rice variety ADT45 was sown in seedling boxes. A compound of formula (Ia) was applied by foliar spray in the form of an EC formulation, at various dose rates and seedling growth stages as shown in Table 1.
# (§3) Transplanting took place at the […] growth stage. Transplant shock was used as an indicator of tolerance to heat stress, and was measured via visual assessment of damage severity on a scale of 0% (no damage) to 100% (dead plant); observations such as yellowing and leaf tip burning are indicators of damage. Transplant shock was also assessed by measuring NVDI values using a Green Seeker™ crop sensor, which measures the percentage green area. A low transplant shock stress rating and high NVDI rating indicate improved tolerance to transplant shock stress.
# (§4) The trial was carried out between 5 Aug. 2015 and 9 Sep. 2015, with transplanting on 15 Aug. 2015. The mean maximum daily temperature during the trial period was 35.3° C., and mean minimum daily temperature during the trial period was 23.7° C. The mean temperature during the entire trial period was 30.2° C.
# [2] = test system: rice seedlings (hybrid rice variety ADT45); assay: Phytotoxicity assessments at Kumbakonam trial; conditions: for Greenness at 3.2 leaf / Seedling height at 3.2 leaf / Seedling injury / Time to 3.2 leaf / Uniformity of foliage growth at 3.2 leaf / Uniformity of greening at 3.2 leaf / Whiteness of root mat at 3.2 leaf: Kumbakonam
# Protocol: For each trial, hybrid rice variety ADT45 was sown in seedling boxes. A compound of formula (Ia) was applied by foliar spray in the form of an EC formulation, at various dose rates and seedling growth stages as shown in Table 1. [table] […] The trial was carried out between 7 May 2015 and 15 Jun. 2015, with transplanting on 29 May 2015. The mean maximum daily temperature during the trial period was 37.3° C., and mean minimum daily temperature during the trial period was 24.9° C. The mean temperature during the entire trial period was 31.1° C.
# [3] = test system: rice seedlings (hybrid rice variety ADT45) under heat stress; assay: NVDI by Green Seeker crop sensor, Kumbakonam trial; design: key: NVDI as percentage green area (Green Seeker)
# From the text: as §1, §2, §3
# as §4, with “7 May” for “5 Aug.”, “15 Jun.” for “9 Sep.”, “29 May” for “15 Aug.”, “37.3°” for “35.3°”, “24.9°” for “23.7°”, “31.1°” for “30.2°”
# [4] = treatment 3: 10 g ai/ha, Sowing
# [5] = treatment 5: 10 g ai/ha, 2-leaf
# [6] = treatment 7: 10 g ai/ha, 3-leaf
# [7] = treatment 2: 5 g ai/ha, Pigeon-breast
# [8] = treatment 3: 10 g ai/ha, Pigeon-breast
# [9] = treatment 4: 20 g ai/ha, Pigeon-breast
# [10] = treatment 6: 10 g ai/ha, 2-leaf
# [11] = treatment 7: 20 g ai/ha, 2-leaf
# [12] = treatment 9: 10 g ai/ha, 3-leaf
# [13] = treatment 10: 20 g ai/ha, 3-leaf
smiles,measurement,setting,value
COc1cccc(Nc2nc(F)nc3[nH]cnc23)c1 [Formula Ia],Average yield increase compared to UTC,"rice under heat stress; treatment 2: 5 g ai/ha, Sowing",+2.9%
same,Yield at 14% MC,"rice under heat stress; treatment 2: 5 g ai/ha, Sowing",6799 kg/ha
same,Average yield increase compared to UTC,rice under heat stress; [4],−0.1%
same,Yield at 14% MC,rice under heat stress; [4],6603 kg/ha
same,Average yield increase compared to UTC,"rice under heat stress; treatment 4: 5 g ai/ha, 2-leaf",+6.2%
same,Yield at 14% MC,"rice under heat stress; treatment 4: 5 g ai/ha, 2-leaf",7014 kg/ha
same,Average yield increase compared to UTC,rice under heat stress; [5],+8.8%
same,Yield at 14% MC,rice under heat stress; [5],7189 kg/ha
same,Average yield increase compared to UTC,"rice under heat stress; treatment 6: 5 g ai/ha, 3-leaf",+5.6%
same,Yield at 14% MC,"rice under heat stress; treatment 6: 5 g ai/ha, 3-leaf",6978 kg/ha
same,Average yield increase compared to UTC,rice under heat stress; [6],+3.3%
same,Yield at 14% MC,rice under heat stress; [6],6830 kg/ha
same,"Tolerance to heat stress / transplant shock stress, comparison of treatments","[1]; Ramapuram trial, treatments 5 and 6 (2-leaf growth stage, 5-10 g ai/ha)",giving the best results
same,Transplanting shock stress (8th day),[1]; [7],12%
same,Transplanting shock stress (12th day),[1]; [7],13%
same,Transplanting shock stress (4th day),"[1]; treatment 2: 5 g ai/ha, Pigeon-breast, scale 0% no damage to 100% dead plant",4%
same,Transplanting shock stress (4th day),[1]; [8],3%
same,Transplanting shock stress (8th day),[1]; [8],7%
same,Transplanting shock stress (12th day),[1]; [8],17%
same,Transplanting shock stress (4th day),[1]; [9],4%
same,Transplanting shock stress (8th day),[1]; [9],8%
same,Transplanting shock stress (12th day),[1]; [9],20%
same,Transplanting shock stress (4th day),"[1]; treatment 5: 5 g ai/ha, 2-leaf",0%
same,Transplanting shock stress (8th day),"[1]; treatment 5: 5 g ai/ha, 2-leaf",2%
same,Transplanting shock stress (12th day),"[1]; treatment 5: 5 g ai/ha, 2-leaf",4%
same,Transplanting shock stress (4th day),[1]; [10],0%
same,Transplanting shock stress (8th day),[1]; [10],1%
same,Transplanting shock stress (12th day),[1]; [10],7%
same,Transplanting shock stress (4th day),[1]; [11],9%
same,Transplanting shock stress (8th day),[1]; [11],8%
same,Transplanting shock stress (12th day),[1]; [11],11%
same,Transplanting shock stress (4th day),"[1]; treatment 8: 5 g ai/ha, 3-leaf",7%
same,Transplanting shock stress (8th day),"[1]; treatment 8: 5 g ai/ha, 3-leaf",12%
same,Transplanting shock stress (12th day),"[1]; treatment 8: 5 g ai/ha, 3-leaf",13%
same,Transplanting shock stress (4th day),[1]; [12],13%
same,Transplanting shock stress (8th day),[1]; [12],20%
same,Transplanting shock stress (12th day),[1]; [12],31%
same,Transplanting shock stress (4th day),[1]; [13],23%
same,Transplanting shock stress (8th day),[1]; [13],37%
same,Transplanting shock stress (12th day),[1]; [13],34%
same,Phytotoxic effects to the rice seedlings (summary),"[2]; Kumbakonam trial, some marginal effects at the highest dose rate",did not cause any phytotoxic effects
same,Greenness at 3.2 leaf,[2]; [7],3 unit
same,Seedling height at 3.2 leaf,[2]; [7],14 cm
same,Seedling injury,[2]; [7],0%
same,Time to 3.2 leaf,[2]; [7],14 days
same,Uniformity of foliage growth at 3.2 leaf,[2]; [7],90%
same,Uniformity of greening at 3.2 leaf,[2]; [7],95%
same,Whiteness of root mat at 3.2 leaf,[2]; [7],90%
same,Greenness at 3.2 leaf,[2]; [8],3 unit
same,Seedling height at 3.2 leaf,[2]; [8],13 cm
same,Seedling injury,[2]; [8],0%
same,Time to 3.2 leaf,[2]; [8],14 days
same,Uniformity of foliage growth at 3.2 leaf,[2]; [8],90%
same,Uniformity of greening at 3.2 leaf,[2]; [8],95%
same,Whiteness of root mat at 3.2 leaf,[2]; [8],90%
same,Greenness at 3.2 leaf,[2]; [9],3 unit
same,Seedling height at 3.2 leaf,[2]; [9],13 cm
same,Seedling injury,[2]; [9],0%
same,Time to 3.2 leaf,[2]; [9],14 days
same,Uniformity of foliage growth at 3.2 leaf,[2]; [9],90%
same,Uniformity of greening at 3.2 leaf,[2]; [9],95%
same,Whiteness of root mat at 3.2 leaf,[2]; [9],90%
same,Greenness at 3.2 leaf,"[2]; treatment 5: 5 g ai/ha, 2-leaf",3 unit
same,Seedling height at 3.2 leaf,"[2]; treatment 5: 5 g ai/ha, 2-leaf",14 cm
same,Seedling injury,"[2]; treatment 5: 5 g ai/ha, 2-leaf",0%
same,Time to 3.2 leaf,"[2]; treatment 5: 5 g ai/ha, 2-leaf",13 days
same,Uniformity of foliage growth at 3.2 leaf,"[2]; treatment 5: 5 g ai/ha, 2-leaf",95%
same,Uniformity of greening at 3.2 leaf,"[2]; treatment 5: 5 g ai/ha, 2-leaf",95%
same,Whiteness of root mat at 3.2 leaf,"[2]; treatment 5: 5 g ai/ha, 2-leaf",85%
same,Greenness at 3.2 leaf,[2]; [10],2.8 unit
same,Seedling height at 3.2 leaf,[2]; [10],14 cm
same,Seedling injury,[2]; [10],3%
same,Time to 3.2 leaf,[2]; [10],13 days
same,Uniformity of foliage growth at 3.2 leaf,[2]; [10],90%
same,Uniformity of greening at 3.2 leaf,[2]; [10],90%
same,Whiteness of root mat at 3.2 leaf,[2]; [10],85%
same,Greenness at 3.2 leaf,[2]; [11],2.5 unit
same,Seedling height at 3.2 leaf,[2]; [11],14 cm
same,Seedling injury,[2]; [11],8%
same,Time to 3.2 leaf,[2]; [11],13 days
same,Uniformity of foliage growth at 3.2 leaf,[2]; [11],90%
same,Uniformity of greening at 3.2 leaf,[2]; [11],85%
same,Whiteness of root mat at 3.2 leaf,[2]; [11],85%
same,Greenness at 3.2 leaf,"[2]; treatment 8: 5 g ai/ha, 3-leaf",3 unit
same,Seedling height at 3.2 leaf,"[2]; treatment 8: 5 g ai/ha, 3-leaf",14 cm
same,Seedling injury,"[2]; treatment 8: 5 g ai/ha, 3-leaf",0%
same,Time to 3.2 leaf,"[2]; treatment 8: 5 g ai/ha, 3-leaf",13 days
same,Uniformity of foliage growth at 3.2 leaf,"[2]; treatment 8: 5 g ai/ha, 3-leaf",90%
same,Uniformity of greening at 3.2 leaf,"[2]; treatment 8: 5 g ai/ha, 3-leaf",95%
same,Whiteness of root mat at 3.2 leaf,"[2]; treatment 8: 5 g ai/ha, 3-leaf",90%
same,Greenness at 3.2 leaf,[2]; [12],3 unit
same,Seedling height at 3.2 leaf,[2]; [12],14 cm
same,Seedling injury,[2]; [12],0%
same,Time to 3.2 leaf,[2]; [12],13 days
same,Uniformity of foliage growth at 3.2 leaf,[2]; [12],90%
same,Uniformity of greening at 3.2 leaf,[2]; [12],95%
same,Whiteness of root mat at 3.2 leaf,[2]; [12],90%
same,Greenness at 3.2 leaf,[2]; [13],2.5 unit
same,Seedling height at 3.2 leaf,[2]; [13],14 cm
same,Seedling injury,[2]; [13],15%
same,Time to 3.2 leaf,[2]; [13],13 days
same,Uniformity of foliage growth at 3.2 leaf,[2]; [13],90%
same,Uniformity of greening at 3.2 leaf,[2]; [13],85%
same,Whiteness of root mat at 3.2 leaf,[2]; [13],85%
same,NVDI data (10 DAT),[3]; [7],12
same,NVDI data (15 DAT),[3]; [7],19
same,NVDI data (10 DAT),[3]; [8],6
same,NVDI data (15 DAT),[3]; [8],19
same,NVDI data (10 DAT),[3]; [9],10
same,NVDI data (15 DAT),[3]; [9],20
same,NVDI data (10 DAT),"[3]; treatment 5: 5 g ai/ha, 2-leaf",13
same,NVDI data (15 DAT),"[3]; treatment 5: 5 g ai/ha, 2-leaf",22
same,NVDI data (10 DAT),[3]; [10],12
same,NVDI data (15 DAT),[3]; [10],20
same,NVDI data (10 DAT),[3]; [11],11
same,NVDI data (15 DAT),[3]; [11],19
same,NVDI data (10 DAT),"[3]; treatment 8: 5 g ai/ha, 3-leaf",10
same,NVDI data (15 DAT),"[3]; treatment 8: 5 g ai/ha, 3-leaf",19
same,NVDI data (10 DAT),[3]; [12],15
same,NVDI data (15 DAT),[3]; [12],18
same,NVDI data (10 DAT),[3]; [13],15
same,NVDI data (15 DAT),[3]; [13],20
